Test results: US6407104B1, “Pyrrolo[1,2-a]pyrazine spla2 inhibitor” (Shionogi & Co., Ltd., priority 1998, dated 2002)

What was measured:
[1] = biological target: T1, recombinant human secretory phospholipase A2 (Homo sapiens, UniProt P14555); test: Inhibition Test of Human Secretory Phospholipase A2 (chromogenic assay); assay type: biochemical; settings: sPLA2 50 ng/well, 40° C., 30 minutes, OD 405 nm, 96 well microtiterplate
T1 sequence (P14555 21-144): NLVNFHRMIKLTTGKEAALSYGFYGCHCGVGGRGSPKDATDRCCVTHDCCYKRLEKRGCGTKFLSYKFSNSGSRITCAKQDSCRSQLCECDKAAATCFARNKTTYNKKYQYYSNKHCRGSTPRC
Source text: Test Example: Inhibition Test of Human Secretory Phospholipase A2
In order to identify and evaluate an inhibitor of recombinant human secretory phospholipase A2, the following chromogenic assay is utilized. The assay herein has been applied for high volume screening wherein 96 well microtiterplate is used. A general explanation for such assay is described in “Analysis of Human Synovial Fluid Phospholipase A2 on Short Chain Phosphatidylcholine-Mixed Micelles: Development of a Spectrophotometric Assay Suitable for a Micortiterplate Reader” (Analytical Biochemistry, 204, pp 190-197, 1992 by Laure. J. Reynolds. Lori L. Hughes and Edward A. Dennis: the disclosure of which is incorporated herein for reference.
pH 7.5 (adjusted with NaOH)
pH 4.5 (adjusted with acetic acid)
1 mg of sPLA2 is dissolved in 1 ml of an enzyme buffer. Thereafter, the solution is maintained at 4° C.
In the assay, 5 μl of the solution is diluted with 1995 μl of the reaction buffer to be used.
198 mg of 5,5′-dithiobis-2-[…] (manufactured by Wako Pure Chemicals) is dissolved in 100 ml of H2O
H 7.5 (adjusted with NaOH)
100 mg of racemic 1,2-bis(heptanoylthio)-1,2-dideoxy-sn-glycero-3-phospholylcholine is dissolved in 1 ml of chloroform.
624.9 mg of Triton-X 100 is dissolved in the reaction buffer.
Enzyme Reaction: for 1 Plate of Microtiterplate
1) 0.106 ml of the substrate solution is put in a centrifugal tube, and nitrogen gas is jetted to remove the solvent. 0.54 ml of Triton-X 100 is added thereto, the mixture is stirred, thereafter it is sonified in a bath type sonification to dissolve. To the resulting product are added 17.8 ml of the reaction buffer and 0.46 ml of DTNB, and 0.18 ml each of the admixture is poured to wells of the 96 well microtiterplate.
2) 10 μl of a test compound (or solvent blank) are added in accordance with alignment of plates which has been previously set.
3) Incubation is effected at 40° C. for 15 minutes.
4) 20μl of an enzyme solution (sPLA2) which has been previously diluted (50 ng/well) are added to start reaction (40° C., 30 minutes).
5) Changes in absorbancy for 30 minutes are measured by a plate reader, and inhibition activity was calculated (OD: 405 nm).
6) IC50 was determined by plotting log concentration with respect to inhibition values within 10% to 90% inhibiting range.

Row | SMILES | melting point [°C] | IC50 [1] [nM]
1 | CCCOC(=O)COc1nc(C)cn2c(Cc3ccc(F)cc3)c(CC)c(C(=O)C(N)=O)c12 [Compound I-93] | 182 to 183 | 282
2 | CCc1c(C(=O)C(N)=O)c2c(OCC(=O)O)nccn2c1Cc1cccs1 [Compound I-6] | 225 to 227 | 9
3 | Cc1c(C(=O)C(N)=O)c2c(OCC(=O)O)nccn2c1Cc1ccccc1 [Compound I-14] | 207 to 208 | 11
4 | NC(=O)C(=O)c1c(C2CC2)c(Cc2ccccc2)n2ccnc(OCC(=O)O)c12 [Compound I-4] | 189 to 191 | 35
5 | COC(=O)COc1nccn2c(Cc3ccccc3)c(C)c(C(=O)C(N)=O)c12 [Compound I-13] | 182 to 183 | 157
6 | CCc1c(C(=O)C(N)=O)c2c(OCC(=O)O)nc(C3CCCCC3)cn2c1Cc1ccccc1-c1ccccc1 [Compound I-82] | 200 to 201.5 | 5
7 | COC(=O)COc1nc(C)cn2c(Cc3ccc(F)cc3)c(C3CC3)c(C(=O)C(N)=O)c12 [Compound I-77] | 179 to 182.5 | 1380
8 | CCc1c(C(=O)C(N)=O)c2c(OCC(=O)O)nc(C)cn2c1Cc1ccccc1F [Compound I-26] | 218 to 219 | 12
9 | CCc1c(C(=O)C(N)=O)c2c(OCC(=O)O)nc(C)cn2c1Cc1ccc(C)s1 [Compound I-86] | 216.5 to 218 | 11
10 | CCc1c(C(=O)C(N)=O)c2c(OCC(=O)O)nc(C)cn2c1Cc1ccccc1 [Compound I-18, [6-Benzyl-7-ethyl-3-methyl-8-oxamoylpyrrolo[1,2-a]pyrazin-1-yl]oxyacetic acid] | 207 to 208 | 9
11 | CCc1c(C(=O)C(N)=O)c2c(OCC(=O)O)nc(C)cn2c1Cc1ccccc1-c1ccc(F)cc1 [Compound I-30] | 175 to 177 | 8
12 | CCc1c(C(=O)C(N)=O)c2c(OCC(=O)O)nc(C)cn2c1CC1CCCC1 [Compound I-24] | 192 to 193 | 17
13 | CCc1c(C(=O)C(N)=O)c2c(OCC(=O)O)nc(C)cn2c1Cc1cccc(F)c1 [Compound I-36] | 190.5 to 193 | 11
14 | CCc1c(C(=O)C(N)=O)c2c(OCC(=O)O)nc(C3CCCCC3)cn2c1Cc1ccccc1 [Compound I-80] | 227 to 230 | 6
15 | CCc1c(C(=O)C(N)=O)c2c(OCC(=O)OC)nccn2c1CC1CCCCC1 [Compound I-7] | 162 to 163 | 389
16 | CCOC(=O)COc1nc(C)cn2c(Cc3ccc(F)cc3)c(CC)c(C(=O)C(N)=O)c12 [Compound I-89] | 184 to 186 | 315
17 | CCc1c(C(=O)C(N)=O)c2c(OCC(=O)OC)nc(C)cn2c1Cc1ccccc1C#Cc1ccccc1 [Compound I-53] | 147 to 149 | 59
18 | CCCCCOC(=O)COc1nc(C)cn2c(Cc3ccc(F)cc3)c(CC)c(C(=O)C(N)=O)c12 [Compound I-94] | 175 to 176 | 650
19 | CCc1c(C(=O)C(N)=O)c2c(OCC(=O)O)nc(C)cn2c1Cc1ccccc1Oc1ccccc1 [Compound I-56, [7-Ethyl-3-methyl-8-oxamoyl-6-(2-phenyloxybenzyl)pyrrolo [1,2-a]pyrazin-1-yl]oxyacetic acid] | 208 to 210 | 6
20 | CCc1c(C(=O)C(N)=O)c2c(OCC(=O)OCCN3CCOCC3)nc(C)cn2c1Cc1ccc(F)cc1 [Compound I-95] | 139 to 140 | 175
21 | CCc1c(C(=O)C(N)=O)c2c(OCC(=O)OC)nccn2c1Cc1cccc(OC)c1 [Compound I-9] | 154 to 155 | 435
22 | Cc1cn2c(Cc3ccc(F)cc3)c(C3CC3)c(C(=O)C(N)=O)c2c(OCC(=O)O)n1 [Compound I-78] | 185 to 187 | 60
23 | CCc1c(C(=O)C(N)=O)c2c(OCC(=O)O)nc(Cc3ccccc3)cn2c1Cc1ccccc1 [Compound I-50] | 200 to 202 | 17
